According to US20120324604A1, “PESTICIDAL MIXTURES CONTAINING ISOXAZOLINE DERIVATIVES AND A FUNGICIDE” (priority 2010, published 2012):

What was measured:
Format in all cases: cell-based
Pythium ultimum = Pythium ultimum (Damping Off) growth inhibition, microtiter plate, photometric
Procedure: Pythium ultimum (Damping Off):
Mycelial fragments of the fungus, prepared from a fresh liquid culture, were directly mixed into nutrient broth (potato dextrose broth). After placing a (DMSO) solution of the test compounds into a microtiter plate (96-well format) the nutrient broth containing the fungal spores was added.

Rhizoctonia solani = Rhizoctonia solani (Foot Rot, Damping-Off) growth inhibition, microtiter plate, photometric; details: applied alone
Procedure: Rhizoctonia solani (Foot Rot, Damping-Off):
Mycelial fragments of the fungus from cryogenic storage were directly mixed into nutrient broth (potato dextrose broth). After placing a (DMSO) solution of the test compounds into a microtiter plate (96-well format) the nutrient broth containing the fungal spores was added.

Botrvtis cinerea = Botrvtis cinerea (Gray Mould) growth inhibition, microtiter plate, photometric; details: alone
Procedure: Botrvtis cinerea (Gray Mould):
(§1) Conidia of the fungus from cryogenic storage were directly mixed into nutrient broth (potato dextrose broth). After placing a (DMSO) solution of the test compounds into a microtiter plate (96-well format) the nutrient broth containing the fungal spores was added.

[1] = test system: Glomerella lagenarium (syn. Colletotrichum lagenarium); assay: Glomerella lagenarium (Anthracnose of Cucurbits) growth inhibition, microtiter plate, photometric; details: alone
Procedure: Glomerella lagenarium (syn. Colletotrichum lagenarium), Anthracnose of Cucurbits:
as §1

Septoria tritici = Septoria tritici (Leaf Blotch) growth inhibition, microtiter plate, photometric; details: alone
Procedure: Septoria tritici (Leaf Blotch):
as §1

[2] = test system: Mycosphaerella arachidis (syn. Cercospora arachidicola); assay: Mycosphaerella arachidis (Brown Leaf Spot of Groundnut) growth inhibition, microtiter plate, photometric; details: alone
Procedure: Mycosphaerella arachidis (syn. Cercospora arachidicola), Brown Leaf Spot of Groundnut (Peanut):
as §1

Fusarium culmorum = Fusarium culmorum (Root Rot) growth inhibition, microtiter plate, photometric; details: single compound, 48 hrs, 24° C.
Procedure: Fusarium culmorum (Root Rot):
as §1

Measured: AVERAGE DEAD IN %

Cc1cc(C2=NOC(c3cc(Cl)cc(Cl)c3)(C(F)(F)F)C2)ccc1C(=O)NC1CS(=O)(=O)C1 (racemic) [A8]
0%: Pythium ultimum; single compound at 0.078125 ppm AI | Pythium ultimum; single compound at 0.15625 ppm AI | Pythium ultimum; single compound at 0.3125 ppm AI | Pythium ultimum; single compound at 0.625 ppm AI | Pythium ultimum; single compound at 1.25 ppm AI | Pythium ultimum; single compound at 2.5 ppm AI | Pythium ultimum; single compound at 5 ppm AI | Pythium ultimum; single compound at 10 ppm AI | Pythium ultimum; single compound at 20 ppm AI | Rhizoctonia solani; 0.0390625 ppm AI | Rhizoctonia solani; 0.078125 ppm AI | Rhizoctonia solani; 0.15625 ppm AI | Rhizoctonia solani; 0.3125 ppm AI | Rhizoctonia solani; 0.625 ppm AI | Rhizoctonia solani; 1.25 ppm AI | Rhizoctonia solani; 2.5 ppm AI | Rhizoctonia solani; 5 ppm AI | Rhizoctonia solani; 10 ppm AI | Rhizoctonia solani; 20 ppm AI | Botrvtis cinerea; 0.078125 ppm AI | Botrvtis cinerea; 0.15625 ppm AI | Botrvtis cinerea; 0.3125 ppm AI | Botrvtis cinerea; 0.625 ppm AI | Botrvtis cinerea; 1.25 ppm AI | Botrvtis cinerea; 2.5 ppm AI | Botrvtis cinerea; 5 ppm AI | Botrvtis cinerea; 10 ppm AI | Botrvtis cinerea; 20 ppm AI | [1]; 0.078125 ppm AI | [1]; 0.15625 ppm AI | [1]; 0.3125 ppm AI | [1]; 0.625 ppm AI | [1]; 1.25 ppm AI | [1]; 2.5 ppm AI | [1]; 5 ppm AI | [1]; 10 ppm AI | [1]; 20 ppm AI | Septoria tritici; 0.0390625 ppm AI | Septoria tritici; 0.078125 ppm AI | Septoria tritici; 0.15625 ppm AI | Septoria tritici; 0.3125 ppm AI | Septoria tritici; 0.625 ppm AI | Septoria tritici; 1.25 ppm AI | Septoria tritici; 2.5 ppm AI | Septoria tritici; 5 ppm AI | Septoria tritici; 10 ppm AI | Septoria tritici; 20 ppm AI | [2]; 0.0390625 PPM AI | [2]; 0.078125 PPM AI | [2]; 0.15625 PPM AI | [2]; 0.3125 PPM AI | [2]; 0.625 PPM AI | [2]; 1.25 PPM AI | [2]; 2.5 PPM AI | [2]; 5 PPM AI | [2]; 10 PPM AI | [2]; 20 PPM AI | Fusarium culmorum; 2.5 PPM AI | Fusarium culmorum; 5 PPM AI | Fusarium culmorum; 10 PPM AI | Fusarium culmorum; 20 PPM AI
